# Source: PubChem BioAssay AID743028 (The Scripps Research Institute Molecular Screening Center, 2013)
# Assay: IV and oral PK profile in mice – LC-MS, in vivo study for V1a-R antagonist project, late-stage follow-up (AID 743028)
# Conditions: C57Bl6 mouse plasma PK; for Cmax: peak plasma concentration; for AUC last: plasma exposure; for Tmax: time to peak
structure (smiles),measurement,setting,value
O=C(C1CCN(c2ccc(Cl)cn2)CC1)N(CC1CC1)c1ccc(Cl)cc1,half-life,IV dosing 1 mg/kg,133 min
same,MRT inf,"IV dosing 1 mg/kg, mean residence time",99 min
same,Cmax,IV dosing 1 mg/kg,19.5 µM
same,clearance,"IV dosing 1 mg/kg, plasma clearance",2.9 mL/min/kg
same,AUC last,IV dosing 1 mg/kg,628 µM·min
same,Tmax,IV dosing 1 mg/kg,4.8 min
same,Vss,"IV dosing 1 mg/kg, volume of distribution",0.26 L/kg
same,half-life,PO dosing 10 mg/kg,173 min
same,bioavailability,"PO dosing 10 mg/kg, oral bioavailability",6.54%
same,Cmax,PO dosing 10 mg/kg,3.08 µM
same,apparent oral clearance (CL/F),"PO dosing 10 mg/kg, plasma clearance",35.1 mL/min/kg
same,AUC last,PO dosing 10 mg/kg,628 µM·min
same,Tmax,PO dosing 10 mg/kg,40 min
